Data reported in article PMC7310027, “PET imaging of soluble epoxide hydrolase in non-human primate brain with [^18F]FNDP” (EJNMMI Research, 2020).
Where two headings read alike, the source gives them in different places.

Columns and labels:
[1] = system: soluble epoxide hydrolase (sEH); assay: Baboon [^18F]FNDP dynamic PET, baseline scans with kinetic modelling (2TCM, 1TCM, Logan); type: in vivo, baboon (Papio anubis)
Procedure: (§1) PET images were acquired using a CPS/CTI high-resolution research tomograph (HRRT), which has an axial resolution (FWHM) of 2.4 mm and in-plane resolution of 2.4–2.8 mm. […] These blocking studies were performed 27 to 43 days apart from each other to ensure full animal recovery. The animals had no food for 12 h prior to each PET study. Anesthesia was induced with intramuscular ketamine (7.5–10 mg/kg) and maintained with a continuous intravenous infusion of propofol at 0.3–0.4 mg/kg/min throughout the PET experiment. One venous catheter was inserted for the radioligand injection, and one arterial catheter was inserted to obtain arterial blood samples. Baboons were intubated to facilitate respiration, and circulatory volume was maintained by constant infusion of isotonic saline. Physiological vital signs including heart rate, blood pressure, electrocardiogram, and oxygen saturation were monitored continuously throughout the study.
(§2) The animals were positioned in the PET scanner with the head immobilized using a thermoplastic mask. A 6-min transmission scan was acquired using a rotating ^137Cesium source for generating attenuation maps. The 90-min dynamic PET acquisition was then started in three-dimensional list mode simultaneously with an intravenous bolus injection of [^18F]FNDP. […]
(§3) Measurement of the arterial plasma input function was conducted through collection of ~ 40 blood samples over the course of the 90-min dynamic PET study. […] Samples were then centrifuged at 1200 × g, and the plasma radioactivity was measured with a cross-calibrated PerkinElmer Wizard 2480 automatic gamma counter.
(§4) The 90 min of PET data were binned into 30 frames: four 15-s, four 30-s, three 1-min, two 2-min, five 4 -min, and 12 5-min frames. Images were reconstructed using the 3D iterative ordered subset expectation maximization (OS-EM) algorithm (with six iterations and 16 subsets) with correction for radioactive decay, deadtime, attenuation, scatter, and randoms. The reconstructed image space consisted of cubic voxels, each 1.22 mm^3 in size, and spanning dimensions of 31 cm × 31 cm (transaxially) and 25 cm (axially).
(§5) The software package PMOD (v3.7, PMOD Technologies Ltd, Zurich, Switzerland) was used for the image processing and subsequent kinetic analysis. The previously acquired T1-weighted brain MRI images for the baboon were co-registered to the reconstructed dynamic PET images acquired in this study. Through manually matching the co-registered MRI to the INIA19 Template and NeuroMaps Atlas for Primate Brain Image Parcellation and Spatial Normalization, 13 representative baboon brain volumes of interest (VOIs) were defined, […] Regional time activity curves (TACs) were then generated for both baseline and blocking PET scans using those VOIs.
(§6) Next, kinetic modeling was performed based on the TACs and the metabolite-corrected arterial plasma input functions. For brain uptake, the primary outcome measure was the regional brain distribution volume (VT) of [^18F]FNDP, defined as concentration of the radiotracer in regional tissue relative to that in blood at equilibrium. We evaluated which compartmental models (e.g., two-tissue-three-compartment (2TCM) or one-tissue-two-compartment (1TCM)) best described the [^18F]FNDP PET data, using statistical model selection criteria, such as the Akaike information criterion. For comparison, the Logan graphical method (t* = 30 min) was also used to compute regional VT, as well as generating voxel-wise parametric images of VT [31].

[2] = as above; type: in vivo, baboon (Papio anubis); conditions: male, baboon (Papio anubis), intravenous, baseline, mean ± SD of 3 baboons
Procedure: as §1, §2, §3, §4, §5, §6

[3] = Amygdala, baseline, mean ± SD of 3 baboons
[4] = Caudate, baseline, mean ± SD of 3 baboons
[5] = Cerebellum, baseline, mean ± SD of 3 baboons
[6] = Corpus callosum, baseline, mean ± SD of 3 baboons
[7] = Frontal gyrus, baseline, mean ± SD of 3 baboons
[8] = Globus pallidus, baseline, mean ± SD of 3 baboons
[9] = Hippocampus, baseline, mean ± SD of 3 baboons
[10] = Hypothalamus, baseline, mean ± SD of 3 baboons
[11] = Insula, baseline, mean ± SD of 3 baboons
[12] = Occipital cortex, baseline, mean ± SD of 3 baboons
[13] = Putamen, baseline, mean ± SD of 3 baboons
[14] = Temporal gyrus, baseline, mean ± SD of 3 baboons
[15] = Thalamus, baseline, mean ± SD of 3 baboons
[16] = White matter, baseline, mean ± SD of 3 baboons

SMILES: O=C(NCCC(c1ccccc1)c1ccccc1)c1ccc([18F])nc1 [[^18F]FNDP, N-(3,3-diphenylpropyl)-6-^18F-fluoronicotinamide]
- 1TCM K1 [1, 3]: 0.14 ± 0.03 mL/cm^3/min
- 2TCM K1 [1, 3]: 0.14 ± 0.03 mL/cm^3/min
- 1TCM K1 [1, 4]: 0.21 ± 0.05 mL/cm^3/min
- 2TCM K1 [1, 4]: 0.21 ± 0.05 mL/cm^3/min
- 1TCM K1 [1, 5]: 0.18 ± 0.03 mL/cm^3/min
- 2TCM K1 [1, 5]: 0.19 ± 0.03 mL/cm^3/min
- 1TCM K1 [1, 6]: 0.15 ± 0.03 mL/cm^3/min
- 2TCM K1 [1, 6]: 0.17 ± 0.03 mL/cm^3/min
- 1TCM K1 [1, 7]: 0.16 ± 0.04 mL/cm^3/min
- 2TCM K1 [1, 7]: 0.18 ± 0.04 mL/cm^3/min
- 1TCM K1 [1, 8]: 0.17 ± 0.03 mL/cm^3/min
- 2TCM K1 [1, 8]: 0.19 ± 0.03 mL/cm^3/min
- 1TCM K1 [1, 9]: 0.14 ± 0.03 mL/cm^3/min
- 2TCM K1 [1, 9]: 0.15 ± 0.04 mL/cm^3/min
- 1TCM K1 [1, 10]: 0.14 ± 0.03 mL/cm^3/min
- 2TCM K1 [1, 10]: 0.15 ± 0.03 mL/cm^3/min
- 1TCM K1 [1, 11]: 0.20 ± 0.05 mL/cm^3/min
- 2TCM K1 [1, 11]: 0.22 ± 0.05 mL/cm^3/min
- 1TCM K1 [1, 12]: 0.17 ± 0.06 mL/cm^3/min
- 2TCM K1 [1, 12]: 0.18 ± 0.06 mL/cm^3/min
- 1TCM K1 [1, 13]: 0.22 ± 0.05 mL/cm^3/min
- 2TCM K1 [1, 13]: 0.23 ± 0.05 mL/cm^3/min
- 1TCM K1 [1, 14]: 0.16 ± 0.03 mL/cm^3/min
- 2TCM K1 [1, 14]: 0.17 ± 0.03 mL/cm^3/min
- 1TCM K1 [1, 15]: 0.16 ± 0.03 mL/cm^3/min
- 2TCM K1 [1, 15]: 0.17 ± 0.03 mL/cm^3/min
- 1TCM K1 [1, 16]: 0.17 ± 0.04 mL/cm^3/min
- 2TCM K1 [1, 16]: 0.18 ± 0.04 mL/cm^3/min
- time of peak of regional brain TACs post-injection ([1]; all regions at baseline): < 15 min
- K1 (2TCM) ([1]; baseline scan, Baboon3): 0.151 ± 0.021 mL/cm^3/min
- Kp ([1]; male, baboon (Papio anubis), brain (cerebellum), intravenous, Cerebellum, baseline, mean ± SD of 3 baboons, read-out: 1TCM VT): 7.33 ± 0.45
- Kp ([1]; male, baboon (Papio anubis), brain (cerebellum), intravenous, Cerebellum, baseline, mean ± SD of 3 baboons, read-out: 2TCM VT): 7.66 ± 0.72
- Kp ([1]; male, baboon (Papio anubis), brain (globus pallidus), intravenous, Globus pallidus, baseline, mean ± SD of 3 baboons, read-out: 1TCM VT): 9.07 ± 0.66
- Kp ([1]; male, baboon (Papio anubis), brain (globus pallidus), intravenous, Globus pallidus, baseline, mean ± SD of 3 baboons, read-out: 2TCM VT): 9.74 ± 1.02
- Kp ([1]; male, baboon (Papio anubis), brain (globus pallidus), intravenous, Globus pallidus, baseline, mean ± SD of 3 baboons, read-out: Logan VT): 9.44 ± 0.92
- Kp ([1]; male, baboon (Papio anubis), brain (occipital cortex), intravenous, Occipital cortex, baseline, mean ± SD of 3 baboons, read-out: 1TCM VT): 7.39 ± 1.56
- Kp ([1]; male, baboon (Papio anubis), brain (occipital cortex), intravenous, Occipital cortex, baseline, mean ± SD of 3 baboons, read-out: 2TCM VT): 7.82 ± 1.82
- Kp ([1]; male, baboon (Papio anubis), brain (occipital cortex), intravenous, Occipital cortex, baseline, mean ± SD of 3 baboons, read-out: Logan VT): 7.67 ± 1.63
- total distribution volume (VT, Logan) ([1]; male, baboon (Papio anubis), brain (range over regions), intravenous, baseline, 3 baboons): 7.63 to 13.3
- Kp ([1]; male, baboon (Papio anubis), brain (white matter), intravenous, White matter, baseline, mean ± SD of 3 baboons, read-out: 1TCM VT): 8.43 ± 0.89
- Kp ([1]; male, baboon (Papio anubis), brain (white matter), intravenous, White matter, baseline, mean ± SD of 3 baboons, read-out: 2TCM VT): 9.29 ± 1.08
- Kp ([1]; male, baboon (Papio anubis), brain (white matter), intravenous, White matter, baseline, mean ± SD of 3 baboons, read-out: Logan VT): 9 ± 1.03
- Kp ([1]; male, baboon (Papio anubis), brain, corpus callosum, intravenous, Corpus callosum, baseline, mean ± SD of 3 baboons, read-out: 1TCM VT): 8.32 ± 0.91
- Kp ([1]; male, baboon (Papio anubis), brain, corpus callosum, intravenous, Corpus callosum, baseline, mean ± SD of 3 baboons, read-out: 2TCM VT): 9.28 ± 0.9
- Kp ([1]; male, baboon (Papio anubis), brain, corpus callosum, intravenous, Corpus callosum, baseline, mean ± SD of 3 baboons, read-out: Logan VT): 9.06 ± 0.99
- Kp ([1]; male, baboon (Papio anubis), brain, frontal gyrus, intravenous, Frontal gyrus, baseline, mean ± SD of 3 baboons, read-out: 1TCM VT): 9.58 ± 0.6
- Kp ([1]; male, baboon (Papio anubis), brain, frontal gyrus, intravenous, Frontal gyrus, baseline, mean ± SD of 3 baboons, read-out: 2TCM VT): 10.5 ± 1.01
- Kp ([1]; male, baboon (Papio anubis), brain, frontal gyrus, intravenous, Frontal gyrus, baseline, mean ± SD of 3 baboons, read-out: Logan VT): 10.3 ± 0.91
- Kp ([1]; male, baboon (Papio anubis), brain, intravenous, baboon brain, baseline, read-out: baseline VT): 10.9 ± 2.4
- Kp ([1]; male, baboon (Papio anubis), brain, temporal gyrus, intravenous, Temporal gyrus, baseline, mean ± SD of 3 baboons, read-out: Logan VT): 9.52 ± 0.57
- Kp ([2]; brain: amygdala, Amygdala, read-out: 1TCM VT): 10.5 ± 0.81
- Kp ([2]; brain: amygdala, Amygdala, read-out: 2TCM VT): 12.5 ± 2.47
- Kp ([2]; brain: amygdala, Amygdala, read-out: Logan VT): 12 ± 1.63
- Kp ([2]; brain: caudate, Caudate, read-out: 1TCM VT): 12.9 ± 1.44
- Kp ([2]; brain: caudate, Caudate, read-out: 2TCM VT): 13.9 ± 2.28
- Kp ([2]; brain: caudate, Caudate, read-out: Logan VT): 13.3 ± 1.94
- Kp ([2]; brain: cerebellum, Cerebellum, read-out: Logan VT): 7.63 ± 0.58
- Kp ([2]; brain: hippocampus, Hippocampus, read-out: 1TCM VT): 10.3 ± 1.55
- Kp ([2]; brain: hippocampus, Hippocampus, read-out: 2TCM VT): 11.5 ± 2.61
- Kp ([2]; brain: hippocampus, Hippocampus, read-out: Logan VT): 11 ± 1.96
- Kp ([2]; brain: hypothalamus, Hypothalamus, read-out: 1TCM VT): 7.77 ± 0.35
- Kp ([2]; brain: hypothalamus, Hypothalamus, read-out: 2TCM VT): 8.32 ± 0.57
- Kp ([2]; brain: hypothalamus, Hypothalamus, read-out: Logan VT): 8.08 ± 0.44
- Kp ([2]; brain: insula, Insula, read-out: 1TCM VT): 12.1 ± 1.08
- Kp ([2]; brain: insula, Insula, read-out: 2TCM VT): 13.8 ± 1.42
- Kp ([2]; brain: insula, Insula, read-out: Logan VT): 12.8 ± 1.32
- Kp ([2]; brain: putamen, Putamen, read-out: 1TCM VT): 12.9 ± 1.54
- Kp ([2]; brain: putamen, Putamen, read-out: 2TCM VT): 13.8 ± 2.27
- Kp ([2]; brain: putamen, Putamen, read-out: Logan VT): 13.3 ± 1.81
- Kp ([2]; brain: temporal gyrus, Temporal gyrus, read-out: 1TCM VT): 9.05 ± 0.41
- Kp ([2]; brain: temporal gyrus, Temporal gyrus, read-out: 2TCM VT): 9.77 ± 1.02
- Kp ([2]; brain: thalamus, Thalamus, read-out: 1TCM VT): 7.42 ± 0.36
- Kp ([2]; brain: thalamus, Thalamus, read-out: 2TCM VT): 7.9 ± 0.74
- Kp ([2]; brain: thalamus, Thalamus, read-out: Logan VT): 7.87 ± 0.55
